Data taken from patent publication US10874108B2, “Anti-microbial compositions” (5D HEALTH PROTECTION GROUP LTD, priority 2016, dated 2020).

Legend:
[1] = Elution from loaded gauze; assay type: physicochemical
Experimental: The gauzes were weighed before soaking, after soaking and after drying for 24 hours. To assess the elution profile of the EDTA complexes from gauze, the loaded gauzes were immersed in water and saline (Table 6 and Table 7). […] After day 2, the eluting of silver, zinc and EDTA decreased more than 5 times compared to day 1.

[2] = Cumulative elution from carbopol hydrogel; assay type: physicochemical
Experimental: Hydrogels were loaded with EDTA compounds and investigated for elution of the silver, zinc and EDTA. Carbopol ETD 2020 was obtained from Lubrizol Advanced Materials, Inc. USA. 1.2 g carbopol power was dissolved in 42.36 g deionized water for 1 hour to fully hydrate. Then 8.4 ml of the EDTA complexes and 4.8 g glycerine were added into carbopol solution with vigorous stirring; finally, 3 g 50% triethanolamine was dropped into the suspension to obtain final products: carbopol hydrogel with EDTA complexes.
The silver, zinc and EDTA increased in saline day by day, which indicated the release of silver, zinc and EDTA can be controlled from the hydrogel.

[3] = test system: cells; experiment: Direct cytotoxicity, Neutral Red Uptake assay

O=C([O-])CN(CCN(CC(=O)[O-])CC(=O)[O-])CC(=O)[O-].[Ag+].[Ag+].[Zn+2] [EDTA compound 4, sample 1]
Elution in saline (ppm) EDTA ([1]; day 1): 24.65 ± 2.40 ppm
Elution in saline (ppm) Silver ([1]; day 1): 49.91 ± 2.29 ppm
Elution in saline (ppm) Zinc ([1]; day 1): 29.69 ± 2.40 ppm
Elution in water (ppm) EDTA ([1]; day 1): 18.09 ± 3.19 ppm
Elution in water (ppm) Silver ([1]; day 1): 35.89 ± 5.66 ppm
Elution in water (ppm) Zinc ([1]; day 1): 21.99 ± 2.85 ppm
Elution in saline (ppm) EDTA ([1]; day 2): 9.19 ± 3.42 ppm
Elution in saline (ppm) Silver ([1]; day 2): 12.76 ± 4.44 ppm
Elution in saline (ppm) Zinc ([1]; day 2): 9.14 ± 2.77 ppm
Elution in water (ppm) EDTA ([1]; day 2): 12.54 ± 3.11 ppm
Elution in water (ppm) Silver ([1]; day 2): 25.27 ± 5.63 ppm
Elution in water (ppm) Zinc ([1]; day 2): 15.66 ± 2.73 ppm
Elution in saline (ppm) EDTA ([1]; day 3): 1.83 ± 0.26 ppm
Elution in saline (ppm) Silver ([1]; day 3): 3.43 ± 0.54 ppm
Elution in saline (ppm) Zinc ([1]; day 3): 3.71 ± 0.27 ppm
Elution in water (ppm) EDTA ([1]; day 3): 1.90 ± 0.79 ppm
Elution in water (ppm) Silver ([1]; day 3): 4.93 ± 2.56 ppm
Elution in water (ppm) Zinc ([1]; day 3): 4.42 ± 1.62 ppm
Elution in saline (ppm) EDTA ([1]; day 4): 1.28 ± 0.84 ppm
Elution in saline (ppm) Silver ([1]; day 4): 2.29 ± 1.73 ppm
Elution in saline (ppm) Zinc ([1]; day 4): 3.42 ± 0.93 ppm
Elution in water (ppm) EDTA ([1]; day 4): 1.27 ± 0.84 ppm
Elution in water (ppm) Silver ([1]; day 4): 1.75 ± 0.76 ppm
Elution in water (ppm) Zinc ([1]; day 4): 3.26 ± 0.35 ppm
Elution in saline (ppm) EDTA ([1]; day 5): 0.45 ± 0.15 ppm
Elution in saline (ppm) Silver ([1]; day 5): 2.52 ± 2.26 ppm
Elution in saline (ppm) Zinc ([1]; day 5): 2.68 ± 2.00 ppm
Elution in water (ppm) EDTA ([1]; day 5): 0.87 ± 0.36 ppm
Elution in water (ppm) Silver ([1]; day 5): 0.85 ± 0.34 ppm
Elution in water (ppm) Zinc ([1]; day 5): 2.06 ± 1.21 ppm
Elution in saline (ppm) EDTA ([2]; day 1): 26.39 ± 2.06 ppm
Elution in saline (ppm) Silver ([2]; day 1): 32.09 ± 3.02 ppm
Elution in saline (ppm) Zinc ([2]; day 1): 22.12 ± 3.31 ppm
Elution in water (ppm) EDTA ([2]; day 1): 31.12 ± 5.40 ppm
Elution in water (ppm) Silver ([2]; day 1): 44.39 ± 5.98 ppm
Elution in water (ppm) Zinc ([2]; day 1): 31.88 ± 3.53 ppm
Elution in saline (ppm) EDTA ([2]; day 2): 27.18 ± 2.34 ppm
Elution in saline (ppm) Silver ([2]; day 2): 37.09 ± 2.91 ppm
Elution in saline (ppm) Zinc ([2]; day 2): 30.90 ± 5.81 ppm
Elution in water (ppm) EDTA ([2]; day 2): 26.21 ± 4.20 ppm
Elution in water (ppm) Silver ([2]; day 2): 47.13 ± 5.03 ppm
Elution in water (ppm) Zinc ([2]; day 2): 36.09 ± 3.61 ppm
Elution in saline (ppm) EDTA ([2]; day 3): 35.02 ± 0.72 ppm
Elution in saline (ppm) Silver ([2]; day 3): 47.05 ± 2.79 ppm
Elution in saline (ppm) Zinc ([2]; day 3): 36.73 ± 3.64 ppm
Elution in water (ppm) EDTA ([2]; day 3): 37.28 ± 2.58 ppm
Elution in water (ppm) Silver ([2]; day 3): 45.58 ± 4.54 ppm
Elution in water (ppm) Zinc ([2]; day 3): 34.28 ± 4.55 ppm
Elution in saline (ppm) EDTA ([2]; day 4): 37.71 ± 1.92 ppm
Elution in saline (ppm) Silver ([2]; day 4): 51.24 ± 1.53 ppm
Elution in saline (ppm) Zinc ([2]; day 4): 40.31 ± 1.84 ppm
Elution in water (ppm) EDTA ([2]; day 4): 37.53 ± 3.27 ppm
Elution in water (ppm) Silver ([2]; day 4): 46.88 ± 6.86 ppm
Elution in water (ppm) Zinc ([2]; day 4): 33.78 ± 2.20 ppm
Elution in saline (ppm) EDTA ([2]; day 5): 40.57 ± 1.41 ppm
Elution in saline (ppm) Silver ([2]; day 5): 59.55 ± 1.21 ppm
Elution in saline (ppm) Zinc ([2]; day 5): 43.22 ± 3.91 ppm
Elution in water (ppm) EDTA ([2]; day 5): 35.11 ± 5.39 ppm
Elution in water (ppm) Silver ([2]; day 5): 45.91 ± 7.04 ppm
Elution in water (ppm) Zinc ([2]; day 5): 35.99 ± 1.16 ppm

O=C([O-])CN(CCN(CC(=O)[O-])CC(=O)[O-])CC(=O)[O-].[Ag+].[Ag+].[Zn+2] [EDTA compound 4, sample 2]
Elution in saline (ppm) EDTA ([1]; day 1): 17.31 ± 1.77 ppm
Elution in saline (ppm) Silver ([1]; day 1): 27.32 ± 3.84 ppm
Elution in saline (ppm) Zinc ([1]; day 1): 22.71 ± 1.75 ppm
Elution in water (ppm) EDTA ([1]; day 1): 13.23 ± 1.28 ppm
Elution in water (ppm) Silver ([1]; day 1): 23.32 ± 3.95 ppm
Elution in water (ppm) Zinc ([1]; day 1): 17.08 ± 3.09 ppm
Elution in saline (ppm) EDTA ([1]; day 2): 6.84 ± 2.67 ppm
Elution in saline (ppm) Silver ([1]; day 2): 8.36 ± 2.37 ppm
Elution in saline (ppm) Zinc ([1]; day 2): 7.67 ± 2.03 ppm
Elution in water (ppm) EDTA ([1]; day 2): 8.74 ± 2.01 ppm
Elution in water (ppm) Silver ([1]; day 2): 16.28 ± 3.75 ppm
Elution in water (ppm) Zinc ([1]; day 2): 12.78 ± 1.55 ppm
Elution in saline (ppm) EDTA ([1]; day 3): 1.75 ± 0.31 ppm
Elution in saline (ppm) Silver ([1]; day 3): 2.55 ± 0.94 ppm
Elution in saline (ppm) Zinc ([1]; day 3): 3.70 ± 0.20 ppm
Elution in water (ppm) EDTA ([1]; day 3): 1.55 ± 0.56 ppm
Elution in water (ppm) Silver ([1]; day 3): 3.82 ± 1.39 ppm
Elution in water (ppm) Zinc ([1]; day 3): 4.21 ± 1.19 ppm
Elution in saline (ppm) EDTA ([1]; day 4): 1.11 ± 0.61 ppm
Elution in saline (ppm) Silver ([1]; day 4): 1.46 ± 0.99 ppm
Elution in saline (ppm) Zinc ([1]; day 4): 3.48 ± 0.68 ppm
Elution in water (ppm) EDTA ([1]; day 4): 1.13 ± 0.57 ppm
Elution in water (ppm) Silver ([1]; day 4): 1.42 ± 0.40 ppm
Elution in water (ppm) Zinc ([1]; day 4): 3.37 ± 0.26 ppm
Elution in saline (ppm) EDTA ([1]; day 5): 0.54 ± 0.11 ppm
Elution in saline (ppm) Silver ([1]; day 5): 1.57 ± 1.43 ppm
Elution in saline (ppm) Zinc ([1]; day 5): 2.95 ± 1.46 ppm
Elution in water (ppm) EDTA ([1]; day 5): 0.79 ± 0.19 ppm
Elution in water (ppm) Silver ([1]; day 5): 0.59 ± 0.35 ppm
Elution in water (ppm) Zinc ([1]; day 5): 2.49 ± 0.88 ppm
Elution in saline (ppm) EDTA ([2]; day 1): 16.64 ± 1.41 ppm
Elution in saline (ppm) Silver ([2]; day 1): 21.10 ± 1.80 ppm
Elution in saline (ppm) Zinc ([2]; day 1): 15.30 ± 2.12 ppm
Elution in water (ppm) EDTA ([2]; day 1): 20.80 ± 3.07 ppm
Elution in water (ppm) Silver ([2]; day 1): 28.41 ± 3.48 ppm
Elution in water (ppm) Zinc ([2]; day 1): 20.77 ± 3.25 ppm
Elution in saline (ppm) EDTA ([2]; day 2): 17.31 ± 1.43 ppm
Elution in saline (ppm) Silver ([2]; day 2): 26.06 ± 2.03 ppm
Elution in saline (ppm) Zinc ([2]; day 2): 20.51 ± 3.94 ppm
Elution in water (ppm) EDTA ([2]; day 2): 22.50 ± 2.86 ppm
Elution in water (ppm) Silver ([2]; day 2): 29.03 ± 4.71 ppm
Elution in water (ppm) Zinc ([2]; day 2): 23.57 ± 2.12 ppm
Elution in saline (ppm) EDTA ([2]; day 3): 21.81 ± 0.42 ppm
Elution in saline (ppm) Silver ([2]; day 3): 31.27 ± 0.96 ppm
Elution in saline (ppm) Zinc ([2]; day 3): 23.98 ± 1.92 ppm
Elution in water (ppm) EDTA ([2]; day 3): 24.64 ± 1.57 ppm
Elution in water (ppm) Silver ([2]; day 3): 29.12 ± 2.73 ppm
Elution in water (ppm) Zinc ([2]; day 3): 22.53 ± 7.30 ppm
Elution in saline (ppm) EDTA ([2]; day 4): 22.70 ± 1.70 ppm
Elution in saline (ppm) Silver ([2]; day 4): 32.50 ± 0.96 ppm
Elution in saline (ppm) Zinc ([2]; day 4): 26.11 ± 1.08 ppm
Elution in water (ppm) EDTA ([2]; day 4): 24.30 ± 1.51 ppm
Elution in water (ppm) Silver ([2]; day 4): 29.89 ± 3.51 ppm
Elution in water (ppm) Zinc ([2]; day 4): 22.23 ± 1.97 ppm
Elution in saline (ppm) EDTA ([2]; day 5): 25.02 ± 0.96 ppm
Elution in saline (ppm) Silver ([2]; day 5): 37.54 ± 0.61 ppm
Elution in saline (ppm) Zinc ([2]; day 5): 27.28 ± 3.01 ppm
Elution in water (ppm) EDTA ([2]; day 5): 23.03 ± 3.46 ppm
Elution in water (ppm) Silver ([2]; day 5): 30.64 ± 5.25 ppm
Elution in water (ppm) Zinc ([2]; day 5): 23.54 ± 1.23 ppm

CCCCCCCCCCCCOS(=O)(=O)[O-].[Na+] [SDS, sodium dodecyl sulphate, reference compound]
Interpretation ([3]; 0.05 mg/ml): Cytotoxic (if the percentage viability is less than 70% of the untreated control, then the substance is considered cytotoxic)
Percentage of Control/Percentage Viability (%) ([3]; 0.05 mg/ml): 6.57 ± 0%
Interpretation ([3]; 0.1 mg/ml): Cytotoxic (if the percentage viability is less than 70% of the untreated control, then the substance is considered cytotoxic)
Percentage of Control/Percentage Viability (%) ([3]; 0.1 mg/ml): 6.57 ± 0%
Interpretation ([3]; 0.15 mg/ml): Cytotoxic (if the percentage viability is less than 70% of the untreated control, then the substance is considered cytotoxic)
Percentage of Control/Percentage Viability (%) ([3]; 0.15 mg/ml): 6.57 ± 0%
Interpretation ([3]; 0.2 mg/ml): Cytotoxic (if the percentage viability is less than 70% of the untreated control, then the substance is considered cytotoxic)
Percentage of Control/Percentage Viability (%) ([3]; 0.2 mg/ml): 6.57 ± 0%
